# Experimental data as given in PMC11530130, “Peripherally restricted PICK1 inhibitor mPD5 ameliorates pain behaviors in murine inflammatory and neuropathic pain models” (JCI Insight, 2024).
# Values joined by “and” are separate entries in the source; they are usually repeats but may differ in a detail not shown here. Equal entries are not always repeated.
# Tested on: mice, spared nerve injury (SNI) model
# Assay: SNI model of neuropathic pain, von Frey, single s.c. dose, male mice day 7
# Assay type: in vivo, mouse
# Procedure: Induction of neuropathic pain (SNI model).
# The initial SNI pain experiment (Figure 4A) was performed by Phenotype Expertise, Marseilles, France – Pain and CNS behaviour CRO under supervision of Stéphane Gaillard, PhD (CEO). Surgery was performed on 8-week-old C57BL/6J male mice (Charles River). The spared nerve injury surgery was performed on anaesthetized mice with a buprenorphine […]
# solution (0.05 mg/kg) injected s.c. 30 min before surgery (10 μL/g). For surgery, mice were anaesthetised with ketamine (100 mg/kg, i.p.) and xylazine (10 mg/kg, i.p.) (volume 10 µL/g) with 100 μL of 1% xylocaine solution infiltrated at the site of the incision. The distal trifurcation of the sciatic nerve was identified, and the tibial and common peroneal branches were ligated with polypropylene nonabsorbable 6-0 sutures (Ethicon) and 1 mm was cut out, leaving the sural branch intact. The wound was closed with sutures, and the animals were allowed to recover and returned to their cages. Two subcutaneous injections of buprenorphine (0.05 mg/kg) were performed with an 8 to 12 hours delay decreasing pain due to the surgery […]
# The remaining SNI pain experiments were performed in-house using the following procedure.
# SNI surgery was performed on the left hindleg of C57BL/6J male and female mice (Janvier, France) under 2% isoflurane anaesthesia. Skin on the lateral surface was incised between hip and knee followed by lengthwise division of the biceps femoris muscle leading to exposure of the three branches of the sciatic nerve. Sural branch was left intact, while the peroneal and tibial branches were ligated with a single surgical knot and axotomized distally of the ligation.
# Wounds were closed with surgical glue or medical clips and animals were monitored daily for signs of stress or discomfort, but in all cases recovered uneventfully.
# Induction of Diabetic neuropathy (STZ model).
# Diabetes was induced by a single i.p. injection of […] streptozocin (STZ) solution (100 μL/10 g, Sigma-Aldrich S0130, batch #WXBB7152V) in male seven-week-old C57BL/6J (Charles River) mice. Glycemia was tested before, and seven days after injection. All injected mice had blood glucose concentration >350 mg/dL from day seven and were used for analgesic testing of the compounds from day 14. One mouse had to be euthanized at seven days post injection. This experiment was performed by Phenotype Expertise, Marseilles, France - Pain and CNS behaviour CRO under supervision of Stéphane Gaillard, PhD (CEO).
# Induction of cancer induced bone pain (CIBP model).
# Osteosarcoma cell line NCTC 2472 (American Type Culture Collection, CCL-11TM) was cultured for two weeks prior to surgery in NCTC-135 medium (Sigma-Aldrich, Denmark) supplemented with sodium hydrogen carbonate and 10% equine serum (Sigma-Aldrich, Denmark). On the day of surgery, cells were washed with PBS and incubated with 3 mL trypsin-EDTA for five min followed by centrifugation (2800 rpm, 3 min). Supernatant was removed, and cell pellet resuspended in PBS to obtain a cell density of 10^7 cells/mL.
# Two separate cohorts of female C3H/HeNHsd mice (Envigo, Netherlands) of 7-8 weeks, were anaesthetized with 6.25 mg/kg xylazine (Rompun vet, 20 mg/mL, Bayer, KVP Pharma + Veterinär Produkte GmbH, Germany, Batch: KV02BHF) and 43.75 mg/kg ketamine (Ketaminol vet, 100 mg/mL, MSD Animal Health, AN Boxmeer, The Netherlands, Batch:
# A140A01) and received 1.0-1.2% isoflurane (1000 mg/g isoflurane, Attane vet, ScanVet, Piramal Critical Care Ltd., UK, Batch: G123J18B) during surgery. The mouse was placed on a 37 °C heating pad. Both hind legs were shaved, and a small horizontal incision was made under the knee followed by a vertical incision of approximately 0.5 cm until the patellar tendon was exposed. The patellar tendon was moved to the lateral side exposing the distal epiphysis of the femur. A hole was made in the middle of the distal epiphysis by gently pushing a 30 G needle (0.3x12 mm, 30 Gx1/2”, Luer-Lock, CHIRANA T. Injecta, CH30012) through the bone […]
# while rotating. […]
smiles,measurement,setting,value
"CCCCCCCCCCCCCC(=O)N(CCOCCOCCC(=O)N[C@@H](Cc1c[nH]cn1)C(=O)N[C@@H](Cc1c[nH]c2ccccc12)C(=O)N[C@@H](CC(C)C)C(=O)N[C@@H](CCCCN)C(=O)N[C@H](C(=O)O)C(C)C)CCOCCOCCC(=O)N[C@@H](Cc1c[nH]cn1)C(=O)N[C@@H](Cc1c[nH]c2ccccc12)C(=O)N[C@@H](CC(C)C)C(=O)N[C@@H](CCCCN)C(=O)N[C@H](C(=O)O)C(C)C [mPD5, myristoyl-NPEG4-(HWLKV)2]",effect on mechanical hypersensitivity (PWT),"SNI day 7, male mice, s.c. 2 μmol/kg",no significant effect
same,duration of significant reduction of mechanical hypersensitivity,"SNI day 7, male mice, s.c. 10 μmol/kg",up to 3 hours
same,"von Frey paw withdrawal threshold, individual animals (Fig 5B)","dose group 2, contra, BL",2 and 1.4 (4×) and 1
same,"von Frey paw withdrawal threshold, individual animals (Fig 5B)","dose group 2, contra, time 0",1.4 (2×) and 1 (4×)
same,"von Frey paw withdrawal threshold, individual animals (Fig 5B)","dose group 2, contra, time 1",1
same,"von Frey paw withdrawal threshold, individual animals (Fig 5B)","dose group 2, injured side, BL",2 (2×) and 1.4 (4×)
same,"von Frey paw withdrawal threshold, individual animals (Fig 5B)","dose group 2, injured side, time 0",0.07 (2×) and 0.16 (3×) and 0.4
same,"von Frey paw withdrawal threshold, individual animals (Fig 5B)","dose group 2, injured side, time 1",0.6 (2×) and 1 (3×) and 1.4
same,"von Frey paw withdrawal threshold, individual animals (Fig 5B)","dose group 10, contra, BL",1.4 (5×) and 1
same,"von Frey paw withdrawal threshold, individual animals (Fig 5B)","dose group 10, contra, time 0",1 (4×) and 1.4 (2×)
same,"von Frey paw withdrawal threshold, individual animals (Fig 5B)","dose group 10, contra, time 1",1 (3×) and 1.4 (3×)
same,"von Frey paw withdrawal threshold, individual animals (Fig 5B)","dose group 10, injured side, BL",1.4 (5×) and 1
same,"von Frey paw withdrawal threshold, individual animals (Fig 5B)","dose group 10, injured side, time 0",0.16 (2×) and 0.07 (3×) and 0.4
same,"von Frey paw withdrawal threshold, individual animals (Fig 5B)","dose group 10, injured side, time 1",1.4 (2×) and 1
same,"von Frey paw withdrawal threshold, individual animals (Fig 5B)","dose group 50, contra, BL",1.4 (4×) and 1 (2×)
same,"von Frey paw withdrawal threshold, individual animals (Fig 5B)","dose group 50, contra, time 0",1.4 (3×) and 1 (3×)
same,"von Frey paw withdrawal threshold, individual animals (Fig 5B)","dose group 50, contra, time 1",1.4 (4×) and 1 (2×)
same,"von Frey paw withdrawal threshold, individual animals (Fig 5B)","dose group 50, injured side, BL",1.4 (5×) and 1
same,"von Frey paw withdrawal threshold, individual animals (Fig 5B)","dose group 50, injured side, time 0",0.07 (2×) and 0.16 (2×) and 0.4 (2×)
same,"von Frey paw withdrawal threshold, individual animals (Fig 5B)","dose group 50, injured side, time 1",1 (3×) and 1.4 (2×) and 2
